One data set addresses T1, human TLR7 (Homo sapiens, UniProt Q9NYK1).
T1 sequence (Q9NYK1 27-1049): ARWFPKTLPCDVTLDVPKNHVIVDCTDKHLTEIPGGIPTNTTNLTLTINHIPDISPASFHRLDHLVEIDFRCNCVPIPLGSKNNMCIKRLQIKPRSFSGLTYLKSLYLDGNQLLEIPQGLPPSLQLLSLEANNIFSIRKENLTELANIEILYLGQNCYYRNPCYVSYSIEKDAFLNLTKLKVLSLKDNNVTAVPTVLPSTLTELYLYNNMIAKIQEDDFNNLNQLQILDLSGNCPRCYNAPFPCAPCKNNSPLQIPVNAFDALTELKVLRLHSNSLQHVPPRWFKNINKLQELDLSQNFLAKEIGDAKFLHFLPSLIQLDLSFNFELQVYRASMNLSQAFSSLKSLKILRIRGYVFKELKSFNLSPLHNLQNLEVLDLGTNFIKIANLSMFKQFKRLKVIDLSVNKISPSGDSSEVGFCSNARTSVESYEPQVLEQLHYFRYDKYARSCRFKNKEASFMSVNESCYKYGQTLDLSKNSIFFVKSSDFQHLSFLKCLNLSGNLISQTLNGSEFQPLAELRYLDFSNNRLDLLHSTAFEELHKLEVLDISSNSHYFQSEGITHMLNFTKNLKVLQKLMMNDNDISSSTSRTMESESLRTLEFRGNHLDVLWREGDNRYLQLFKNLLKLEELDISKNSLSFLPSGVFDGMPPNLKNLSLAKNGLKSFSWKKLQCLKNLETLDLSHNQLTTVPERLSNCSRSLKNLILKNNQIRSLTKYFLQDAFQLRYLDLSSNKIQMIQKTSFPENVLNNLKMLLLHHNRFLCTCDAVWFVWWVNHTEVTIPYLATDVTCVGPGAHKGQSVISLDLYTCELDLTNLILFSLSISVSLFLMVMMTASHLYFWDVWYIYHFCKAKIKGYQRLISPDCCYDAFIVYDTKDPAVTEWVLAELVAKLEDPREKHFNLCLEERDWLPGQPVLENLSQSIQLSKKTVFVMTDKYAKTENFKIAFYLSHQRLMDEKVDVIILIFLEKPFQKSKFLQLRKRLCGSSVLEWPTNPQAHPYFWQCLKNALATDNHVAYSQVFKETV
Briefly: HEK293-Blue-hTLR-7 cells assay (SEAP reporter). The class given is cell-based. The settings on record: for pEC50: HEK293-Blue-hTLR-7 cells, SEAP reporter, 20 hrs. An outline of the steps: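 HEK293-Blue-hTLR7 cells with NF-κB/AP-1-driven SEAP reporter exposed to serially diluted compound (1% DMSO) for 20 hrs at 37° C. Supernatant SEAP measured with QUANTI-Blue after 2 hrs at 37° C, absorbance 620~655 nm; agonism expressed as EC50.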

Data set [1] can be described thus: Single dose PK study in male Wister-Han rats. The class given is in vivo. Conditions: 5 mg/kg oral dosing of active form. On the procedure: The single dose PK in Male Wister-Han Rats was performed to assess pharmacokinetic properties of tested compounds. Two groups of animals were dosed via Gavage (POE) of the respective compound. […] Blood samples were placed into tubes containing EDTA-K2 anticoagulant and centrifuged at 5000 rpm for 6 min at 4° C. to separate plasma from the samples. After centrifugation, the resulting plasma was transferred to clean tubes for bioanalysis of both prodrug and active form on LC/MS/MS. In the groups that prodrug were dosed, the concentration of prodrugs in the plasma samples was under the detection limit. The “tested compound” in Table 8 was used as the internal standard for testing the metabolite (active form) of “dose compound” in vivo. The pharmacokinetic parameters were calculated using non-compartmental module of WinNonlin® Professional 6.2. The peak concentration (Cmax) was recorded directly from experimental observations. The area under the plasma concentration-time curve (AUC0-t) was calculated using the linear trapezoidal rule up to the last detectable concentration. Cmax and AUC0-last are two critical PK parameters related to the in vivo efficacy of the tested compound. Compounds with higher Cmax and AUC0-last will lead to the better in vivo efficacy.

The next data set is described as follows: LYSA solubility study. Conditions: aqueous solubility, 0.05M phosphate buffer pH 6.5. The class given is physicochemical. An outline of the steps: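 Samples from 10 mM DMSO stock were dried, redissolved in 0.05M phosphate buffer pH 6.5, stirred 1 h, shaken 2 h, left overnight and filtered. Filtrate and 1/10 dilution quantified by HPLC-UV; solubility in μg/mL, reported as greater-than when >80% of the maximum sample amount was in solution.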

The nature of data set [2]: Portal vein study: oral PK in PVC/CAC dual cannulated rat. The class given is in vivo. Conditions: prodrug 10 mg/kg oral, analyte prodrug. On the procedure: Surgery was performed under pentobarbital/isoflurane anesthesia. Briefly, after disinfecting the abdominal area with betadine and 70% isopropyl alcohol, a small abdominal mid-line incision was made. The cecum was pulled out and mesenteric vein was identified and isolated for about 5 mm vessel. A loose ligature was placed proximally and distal end of the vein was ligated. Make a small incision (just enough to allow the insertion of the catheter) on isolated vein and insert the PU catheter towards liver for appropriate length. The catheter was secured in place by tying the loose ligature around the cannulated vessel. The cecum was replaced into abdominal cavity. A hole was made in the right abdominal wall to make the end of catheter pass freely. The catheter was secured by suture on the abdominal wall. The abdominal muscle incision was closed with suture. A small incision was made in the scapular area to serve as the exit site of the catheter. The catheter was subcutaneously tunneled and exteriorized through the scapular incision. A fixed suture was placed in the scapular region. The patency of the catheter was checked and then exteriorized from the subcutaneous space to the dorsal neck region. After gently wiping the area, the abdominal cavity was sutured. The left carotid artery was then cannulated by inserting a PESO catheter. Both the exteriorized catheters were tied firmly on the dorsal neck region and fixed. The animals was then allowed to recover in its cage and used for study at least 3 days after surgery. All catheters were flushed once daily with heparinized saline to maintain patency. Animals were fasted overnight (n=3) and administered vial oral gavage (10 mg/kg, 10 mL/kg). Blood samples (60 μL) were collected simultaneously from the portal and carotid artery catheters at 0.083, 0.25, 0.5, 1, 2, 4, 7, 24 h. All blood samples will be transferred into microcentrifuge tubes containing 2 μL of K2EDTA (0.5M) as anti-coagulant and placed on wet ice. Then blood samples will be processed for plasma by centrifugation at approximately 4° C., 3000 g within half an hour of collection. Plasma samples will be stored in polypropylene tubes, quick frozen over dry ice and kept at −70±10° C. until LC/MS/MS analysis. Pharmacokinetic parameters (mean±SD, n=3) of prodrugs and active forms in portal and carotid samples following oral administration of prodrugs (10 mg/kg) in portal vein cannulated rat were detected and analyzed.

For data set [3] the following is noted: phase Ib, patients with chronic hepatitis B; cited from earlier work.
The mark [4] stands for this setting: male, Wister-Han, rat, plasma, po, 5 mg/kg.

pEC50: −log10 of the molar value. “And” between values parts separate entries of the source, which are not always exact repeats. Identical values can stand only once. Like-named read-outs stand apart in the source and are kept apart here.

Regarding `CCS(=N)(=O)c1nc(N)c2[nH]c(=O)n(Cc3ccc(F)cc3)c2n1` (single isomer, unassigned) [Compound 45e-B], the pEC50 on human TLR7 (active form, read-out: HEK293-hTLR-7 EC50 (Active form)) is 6.59 and 6.41. Further, in data set [1], the “AUC0-last” value worked out at 0.568 µM·h and the Cmax came out at 53.9 nM. The concentration at 0.25 h in data set [1] (read-out: Mean plasma concentration (nM), 0.25 h) stood at 42.8 nM. Further, in data set [1] (read-out: Mean plasma concentration (nM), 0.5 h), the concentration at 0.5 h is reported as 52.2 nM. For the same molecule, in data set [1] (read-out: Mean plasma concentration (nM), 1 h), the concentration at 1 h was 37.6 nM. Also, the concentration at 2 h in data set [1] (read-out: Mean plasma concentration (nM), 2 h) turned out to be 24.2 nM. Further, the concentration at 4 h in data set [1] (read-out: Mean plasma concentration (nM), 4 h) worked out at 53.9 nM. For the same molecule, the concentration at 8 h in data set [1] (read-out: Mean plasma concentration (nM), 8 h) was 29 nM. Moreover, the concentration at 24 h in data set [1] (24 h, read-out: Mean plasma concentration (nM), 24 h) is reported as 5.7 nM. Besides, in the data set “LYSA solubility study”, the “LYSA of Active Forms” value turned out to be 115 µg/mL.

On to `CCCN(C)C(=O)n1c(=O)n(Cc2ccccc2)c2nc(S(=N)(=O)CCC)nc(N)c21` (single isomer, unassigned) [Example 1-B], for which the “Ratio (EC50(prodrug)/EC50(active form))” value on human TLR7 (EC50 of prodrug over EC50 of corresponding active form) is 314.0. Besides, the pEC50 on human TLR7 (prodrug, read-out: HEK293-hTLR-7 EC50 (Prodrug)) was 4.57. The “LYSA of Prodrugs” value in “LYSA solubility study” came to 200 µg/mL. Besides, the AUC(0-t) amounted to 0.04 µM·h in data set [2] (carotid artery plasma, read-out: AUC0-2 (nM · h), prodrug, Carotid sampling) and 0.266 µM·h in data set [2] (portal vein plasma, read-out: AUC0-2 (nM · h), prodrug, Portal sampling). Besides, the Cmax was determined as 70 nM in data set [2] (carotid artery plasma, read-out: Cmax (nM), prodrug, Carotid sampling) and 670 nM in data set [2] (portal vein plasma, read-out: Cmax (nM), prodrug, Portal sampling). The Tmax in data set [2] (carotid artery plasma, read-out: Tmax (h), prodrug, Carotid sampling) worked out at 0.083 h; in data set [2] (portal vein plasma, read-out: Tmax (h), prodrug, Portal sampling), 0.083 h.

For `CCCCOc1nc(N)c2c(n1)N(Cc1cccc(CN3CCCC3)c1)CC(=O)N2` [GS9620, reference compound], in data set [1] (setting [4]), the AUC(0-t) came to 0.316 µM·h, the Cmax amounted to 164 nM, the concentration at 0.25 h came out at 56.3 nM and the concentration at 0.5 h was 33.2 nM. Moreover, in data set [1] (setting [4]), the concentration at 1 h is 83.4 nM, the concentration at 2 h came out at 136 nM, the concentration at 4 h is 16.7 nM and the concentration at 8 h was determined as 9.49 nM. Besides, in data set [3], the “ISG15 mRNA induction” value was “dose-dependent ISG15 mRNA induction”; the safety and tolerability result is on record as “safe, well tolerated”.
